Laboratory results: ChEMBL document CHEMBL1201862, “PubChem BioAssay data set” (2004)
The source made the active and inactive calls.

How the values were obtained:
[1] = biological target: T1, Microphthalmia-associated transcription factor (Homo sapiens, UniProt O75030); assay: TRPM1 promoter luciferase signal decrease, dose response, MITF inhibitor project, cell-based, SK-MEL-5, cherry-picked, set 3 (AID 493073); format: functional
T1 sequence (O75030 whole entry): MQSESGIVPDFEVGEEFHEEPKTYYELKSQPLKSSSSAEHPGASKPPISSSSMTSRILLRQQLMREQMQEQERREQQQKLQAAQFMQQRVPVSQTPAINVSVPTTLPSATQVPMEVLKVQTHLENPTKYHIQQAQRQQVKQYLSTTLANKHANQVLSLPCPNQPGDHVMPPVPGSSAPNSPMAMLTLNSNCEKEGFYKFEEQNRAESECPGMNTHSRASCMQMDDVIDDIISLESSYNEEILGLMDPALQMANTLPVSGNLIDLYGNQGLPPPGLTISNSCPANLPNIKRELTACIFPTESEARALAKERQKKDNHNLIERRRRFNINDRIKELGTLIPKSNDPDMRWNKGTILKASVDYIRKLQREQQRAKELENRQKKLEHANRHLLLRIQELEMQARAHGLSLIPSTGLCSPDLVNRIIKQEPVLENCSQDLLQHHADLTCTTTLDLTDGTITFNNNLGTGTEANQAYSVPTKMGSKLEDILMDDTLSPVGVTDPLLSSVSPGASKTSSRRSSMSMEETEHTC

[2] = HepG2 cell cytotoxicity, dose response, cytotoxicity control, plate reader, cherry-pick, antagonist series (AID 743416); format: functional, cell-based
A-375 = assay: A375 melanoma cell viability reduction, dose response, counter-screen for MITF modulator project, cherry-pick samples, set 2 (AID 540335); format: functional, cell-based; conditions: Homo sapiens
[3] = MC4R antagonists, dose response, counter-screen for LGR2 antagonist project, cell-based, plate reader, cherry pick (AID 743444); format: functional;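 also: transfected HEK 293 cells stimulated with alpha-MSH peptide; potency of inhibitors of the alpha-MSH evoked signal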
[4] = A549 cell cytotoxicity, dose response, cytotoxicity control, plate reader, cherry-pick, antagonist series (AID 743412); format: functional, cell-based
[5] = biological target: Luciferin 4-monooxygenase (Photinus pyralis, UniProt P08659); assay: firefly luciferase enzyme inhibitors, dose response, biochemical, luminescence (AID 1891)
Chain of Luciferin 4-monooxygenase (P08659 whole entry): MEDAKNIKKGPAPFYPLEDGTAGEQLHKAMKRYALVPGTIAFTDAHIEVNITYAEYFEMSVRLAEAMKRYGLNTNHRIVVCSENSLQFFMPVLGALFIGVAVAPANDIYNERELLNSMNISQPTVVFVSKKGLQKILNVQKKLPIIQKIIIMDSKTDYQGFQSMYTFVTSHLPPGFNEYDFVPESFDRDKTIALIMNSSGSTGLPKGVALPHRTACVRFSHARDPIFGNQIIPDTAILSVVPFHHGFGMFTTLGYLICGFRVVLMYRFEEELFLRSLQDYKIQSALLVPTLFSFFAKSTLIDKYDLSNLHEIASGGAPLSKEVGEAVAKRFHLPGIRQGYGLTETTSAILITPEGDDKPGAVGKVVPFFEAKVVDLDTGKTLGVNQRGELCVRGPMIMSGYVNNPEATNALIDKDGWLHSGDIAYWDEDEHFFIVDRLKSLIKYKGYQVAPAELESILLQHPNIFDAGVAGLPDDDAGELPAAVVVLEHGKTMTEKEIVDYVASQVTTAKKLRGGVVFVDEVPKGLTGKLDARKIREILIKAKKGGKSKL

[6] = Luminescence Cell-Based Dose Response HTS to Identify Inhibitors of 5'UTR Stem-Loop Driven Prion Protein mRNA Translation in H4 Neuroglioblastoma Cells. [Related pubchem assays: 1827 (Project Summary), 1813 (Primary HTS)]; format: functional
[7] = biological target: T2, Type-1 angiotensin II receptor (Homo sapiens, UniProt P30556); assay: AT1 receptor antagonists, dose response, selectivity assay for APJ receptor antagonist project, cell-based, uHTS hits (AID 463214); format: functional;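 also: antagonist potency against angiotensin II stimulated AT1 response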
T2 sequence (P30556 whole entry): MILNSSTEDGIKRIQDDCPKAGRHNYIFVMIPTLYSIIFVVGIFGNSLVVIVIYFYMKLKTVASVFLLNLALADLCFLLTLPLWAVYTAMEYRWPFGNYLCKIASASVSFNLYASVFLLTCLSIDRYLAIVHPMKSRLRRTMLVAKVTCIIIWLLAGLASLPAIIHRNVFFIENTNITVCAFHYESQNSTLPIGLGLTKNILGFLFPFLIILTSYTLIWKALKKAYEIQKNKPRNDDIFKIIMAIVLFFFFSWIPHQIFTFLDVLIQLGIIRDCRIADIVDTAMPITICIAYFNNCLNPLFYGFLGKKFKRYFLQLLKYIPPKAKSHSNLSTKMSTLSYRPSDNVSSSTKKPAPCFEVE

[8] = LGR2 antagonists, dose response, cell-based, HEK293, CRE-luciferase reporter, cherry pick, set 2 (AID 743343); format: functional;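 also: transfected cells were stimulated with diluted bursicon conditioned medium after compound addition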
[9] = inhibitors of SNCA 5'UTR-driven reporter translation, confirmation, H4 neuroglioma cells, luminescence (AID 1988); format: functional, cell-based
[10] = Luminescence Cell-Based Dose Confirmation HTS to Identify Inhibitors of Platelet Dense Granule Release. [Related pubchem assays: 1663 (Primary HTS), 1678 (Summary of Project)]; format: functional
[11] = HEK293 cell cytotoxicity, dose response, cytotoxicity control, plate reader, cherry-picked samples (AID 743446); format: functional, cell-based
Beta-galactosidase = Beta-galactosidase (Escherichia coli, UniProt Q8VNN2); assay: PubChem AID 485352; format: functional
Chain of Beta-galactosidase (Q8VNN2 whole entry): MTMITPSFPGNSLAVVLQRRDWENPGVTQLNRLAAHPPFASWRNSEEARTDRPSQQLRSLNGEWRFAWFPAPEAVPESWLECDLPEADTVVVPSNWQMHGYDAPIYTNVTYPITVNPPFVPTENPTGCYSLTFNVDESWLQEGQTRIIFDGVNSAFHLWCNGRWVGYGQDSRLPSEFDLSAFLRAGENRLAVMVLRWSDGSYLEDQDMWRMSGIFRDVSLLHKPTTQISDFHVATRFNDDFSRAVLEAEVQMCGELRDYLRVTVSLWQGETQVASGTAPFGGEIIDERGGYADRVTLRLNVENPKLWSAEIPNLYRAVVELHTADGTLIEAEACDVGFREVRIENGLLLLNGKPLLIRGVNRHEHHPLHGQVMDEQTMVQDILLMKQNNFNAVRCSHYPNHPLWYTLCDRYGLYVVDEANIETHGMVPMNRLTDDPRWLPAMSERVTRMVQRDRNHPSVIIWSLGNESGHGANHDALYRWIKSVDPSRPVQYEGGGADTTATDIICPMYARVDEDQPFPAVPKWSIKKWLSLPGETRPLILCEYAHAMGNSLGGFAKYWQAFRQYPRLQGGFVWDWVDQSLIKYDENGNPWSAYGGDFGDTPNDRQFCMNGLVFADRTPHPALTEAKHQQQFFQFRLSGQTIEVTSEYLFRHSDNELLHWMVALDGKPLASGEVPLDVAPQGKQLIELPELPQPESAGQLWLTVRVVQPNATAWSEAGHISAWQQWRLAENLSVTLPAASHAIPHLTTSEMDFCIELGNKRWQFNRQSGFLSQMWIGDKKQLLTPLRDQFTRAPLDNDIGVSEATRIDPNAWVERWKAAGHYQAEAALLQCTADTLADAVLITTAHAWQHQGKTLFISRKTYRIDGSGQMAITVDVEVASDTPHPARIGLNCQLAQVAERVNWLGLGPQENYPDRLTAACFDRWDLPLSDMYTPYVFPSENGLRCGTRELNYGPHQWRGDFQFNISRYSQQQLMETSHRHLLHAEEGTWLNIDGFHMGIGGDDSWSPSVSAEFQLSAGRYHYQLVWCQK

Escherichia coli = assay: microbe, parasite or virus in culture
MDCK [12] = assay: antiviral activity against H1N1 influenza, dose response, cell-based, strain KY136 (AID 540257); format: functional; conditions: Canis lupus familiaris
Nonstructural protein 1 = Nonstructural protein 1 (Influenza A virus, UniProt Q194T2); format: functional, Influenza A virus (A/California/07/2009(H1N1))
Chain of Nonstructural protein 1 (Q194T2 whole entry): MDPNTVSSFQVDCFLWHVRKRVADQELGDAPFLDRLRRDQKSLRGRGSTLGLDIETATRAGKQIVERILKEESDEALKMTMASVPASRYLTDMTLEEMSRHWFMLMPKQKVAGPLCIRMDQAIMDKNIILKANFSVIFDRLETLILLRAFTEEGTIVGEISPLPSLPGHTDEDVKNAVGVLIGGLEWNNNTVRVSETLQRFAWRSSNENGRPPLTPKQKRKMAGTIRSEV

MDCK [13] = assay: antiviral activity against H1N1 influenza, dose response, cell-based, strain KY180 (AID 540254); format: functional; conditions: Canis lupus familiaris
[14] = biological target: Glycogen synthase kinase-3 beta (Homo sapiens, UniProt P49841); assay: Inhibition of Human GSK-3 beta Activity Measured in Biochemical System Using Microfluidics - 2063-05_Inhibitor_Dose_DryPowder_Activity. [Related pubchem assays (depositor defined):AID2709]
Chain of Glycogen synthase kinase-3 beta (P49841 whole entry): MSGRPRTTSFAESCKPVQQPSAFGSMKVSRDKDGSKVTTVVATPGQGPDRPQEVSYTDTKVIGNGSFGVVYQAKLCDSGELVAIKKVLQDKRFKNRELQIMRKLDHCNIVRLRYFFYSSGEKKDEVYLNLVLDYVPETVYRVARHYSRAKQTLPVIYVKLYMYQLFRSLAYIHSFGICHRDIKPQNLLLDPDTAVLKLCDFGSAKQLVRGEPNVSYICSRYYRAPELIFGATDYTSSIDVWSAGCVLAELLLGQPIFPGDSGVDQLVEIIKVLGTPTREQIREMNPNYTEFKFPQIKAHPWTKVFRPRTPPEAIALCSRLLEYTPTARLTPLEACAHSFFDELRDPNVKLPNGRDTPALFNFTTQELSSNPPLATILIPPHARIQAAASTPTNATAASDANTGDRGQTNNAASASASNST

[15] = biological target: Glycogen synthase kinase-3 alpha (Homo sapiens, UniProt P49840); assay: Inhibition of Human GSK-3 alpha Activity Measured in Biochemical System Using Microfluidics - 2063-06_Inhibitor_Dose_DryPowder_Activity. [Related pubchem assays (depositor defined):AID2709]
Chain of Glycogen synthase kinase-3 alpha (P49840 whole entry): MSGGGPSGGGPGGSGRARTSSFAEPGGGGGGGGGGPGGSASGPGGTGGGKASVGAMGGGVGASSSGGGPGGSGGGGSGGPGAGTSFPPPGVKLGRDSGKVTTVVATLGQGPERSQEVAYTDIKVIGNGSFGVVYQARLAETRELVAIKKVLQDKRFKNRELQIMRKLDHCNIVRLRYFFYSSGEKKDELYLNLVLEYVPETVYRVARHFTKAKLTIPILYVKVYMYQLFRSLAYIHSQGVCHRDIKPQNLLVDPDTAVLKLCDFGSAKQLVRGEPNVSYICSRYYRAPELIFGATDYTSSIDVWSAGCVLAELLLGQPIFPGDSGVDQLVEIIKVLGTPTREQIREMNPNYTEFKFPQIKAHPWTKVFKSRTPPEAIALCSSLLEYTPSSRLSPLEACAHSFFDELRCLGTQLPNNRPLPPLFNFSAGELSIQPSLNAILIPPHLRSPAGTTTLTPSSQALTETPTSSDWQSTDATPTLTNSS

[16] = biological target: T3, COUP transcription factor 2 (Homo sapiens, UniProt P24468); assay: Luminescence-based cell-based high throughput dose response assay to identify inhibitors of COUP-TFII (NR2F2).; format: functional;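 also: HEK293 cells transiently cotransfected with COUP-TFII expression vector and reporter; luciferase reporter luminescence driven by COUP-TFII from the pX2-168 reporter plasmid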
T3 sequence (P24468 whole entry): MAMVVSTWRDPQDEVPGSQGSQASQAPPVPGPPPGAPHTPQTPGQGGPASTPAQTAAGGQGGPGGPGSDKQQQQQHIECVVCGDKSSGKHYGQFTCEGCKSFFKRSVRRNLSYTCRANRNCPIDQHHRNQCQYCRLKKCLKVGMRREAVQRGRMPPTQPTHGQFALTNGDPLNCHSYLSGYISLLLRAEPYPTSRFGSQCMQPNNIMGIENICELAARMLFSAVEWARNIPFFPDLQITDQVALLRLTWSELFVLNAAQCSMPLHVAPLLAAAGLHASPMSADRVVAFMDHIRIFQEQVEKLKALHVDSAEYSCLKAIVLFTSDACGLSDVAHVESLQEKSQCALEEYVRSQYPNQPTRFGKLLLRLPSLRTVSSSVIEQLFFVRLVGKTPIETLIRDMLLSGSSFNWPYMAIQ

[17] = biological target: Nucleotide-binding oligomerization domain-containing protein 2 (Homo sapiens, UniProt Q9HC29); assay: NOD2 signaling inhibitors, cell-based, luminescence, uHTS, HEK293 (AID 1566); format: functional
Chain of Nucleotide-binding oligomerization domain-containing protein 2 (Q9HC29 whole entry, the tested form may be a part): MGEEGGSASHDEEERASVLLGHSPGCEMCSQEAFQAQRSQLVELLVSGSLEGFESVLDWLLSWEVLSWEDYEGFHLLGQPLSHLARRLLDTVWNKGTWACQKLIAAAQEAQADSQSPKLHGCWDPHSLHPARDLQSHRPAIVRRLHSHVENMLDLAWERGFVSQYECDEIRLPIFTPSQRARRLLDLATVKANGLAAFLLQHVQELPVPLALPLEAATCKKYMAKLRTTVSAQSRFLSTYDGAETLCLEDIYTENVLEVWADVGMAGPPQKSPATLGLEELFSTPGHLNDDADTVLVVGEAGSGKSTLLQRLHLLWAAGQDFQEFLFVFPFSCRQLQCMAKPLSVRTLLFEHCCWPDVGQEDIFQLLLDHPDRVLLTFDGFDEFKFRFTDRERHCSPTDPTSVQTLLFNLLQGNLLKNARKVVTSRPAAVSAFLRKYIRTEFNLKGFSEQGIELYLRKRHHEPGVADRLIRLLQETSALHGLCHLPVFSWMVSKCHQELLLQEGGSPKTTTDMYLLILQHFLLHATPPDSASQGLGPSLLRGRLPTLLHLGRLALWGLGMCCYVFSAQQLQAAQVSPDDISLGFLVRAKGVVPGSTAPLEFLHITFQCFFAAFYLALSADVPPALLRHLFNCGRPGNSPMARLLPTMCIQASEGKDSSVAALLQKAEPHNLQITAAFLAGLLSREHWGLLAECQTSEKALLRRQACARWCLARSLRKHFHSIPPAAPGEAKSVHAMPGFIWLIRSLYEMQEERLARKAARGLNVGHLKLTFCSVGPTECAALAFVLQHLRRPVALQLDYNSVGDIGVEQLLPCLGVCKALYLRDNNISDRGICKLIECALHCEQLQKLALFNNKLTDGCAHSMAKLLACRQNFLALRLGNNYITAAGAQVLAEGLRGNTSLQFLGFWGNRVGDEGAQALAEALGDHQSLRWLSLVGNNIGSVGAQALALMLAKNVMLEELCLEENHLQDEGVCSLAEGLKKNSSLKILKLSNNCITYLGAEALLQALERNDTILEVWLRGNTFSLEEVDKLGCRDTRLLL

HEK293 [18] = assay: cells; format: functional, cell-based; conditions: Homo sapiens
HEK293 [19] = assay: cells; format: functional, cell-based; conditions: Homo sapiens; remark: listed apart in the source
HEK293 [20] = assay: NOD2 signaling inhibitors in MDP-stimulated cells, cell-based, uHTS, luminescence (AID 2001); format: functional; conditions: Homo sapiens
[21] = cytotoxicity in HEK-293T NF-kB-Luc cells, dose response, cytotoxicity control for B/T-cell NF-kB inhibitor project, cell-based, uHTS hits (AID 489019); format: functional;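 also: IC50 reflects cytotoxicity as loss of cell viability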
INS1 = assay: beta cell apoptosis inhibitors, cytokine rescue, dose response, luminescence, retest (AID 449756); format: functional, cell-based; conditions: Rattus norvegicus;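 also: cell death triggered by IL-1 beta plus TNF-alpha plus IFN-gamma mixture; protective hits raise ATP signal compared with cytokine alone wells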
HEK293 [22] = assay: NOD1 signaling inhibitors, primary screen, cell-based, luminescence, uHTS (AID 1578); format: functional; conditions: Homo sapiens
Jurkat [23] = assay: antigen receptor-induced NF-kB inhibitors, dose response, Jurkat, luciferase reporter, luminescence, B- and T-cell (AID 489004); format: functional, cell-based; conditions: Homo sapiens;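 also: NF-kB luciferase reporter Jurkat cells stimulated with PMA plus ionomycin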
HEK293 [24] = assay: cells; format: functional, cell-based; conditions: Homo sapiens; remark: listed apart in the source
HEK293 [25] = assay: cytotoxicity in HEK293T NF-kB-Luc cells, SAR follow-up, cytotoxicity control for NF-kB activator project, cell-based, resazurin fluorescence (AID 493251); format: functional; conditions: Homo sapiens
HEK293 [26] = assay: SAR Analysis of small molecule inhibitors of T-cell specific antigen receptor-induced NF-kB activation in a HEK-293T cell line using a luminescence assay - Set 2. [Related pubchem assays (depositor defined):AID435003, AID435012, AID489026]; format: functional, cell-based; conditions: Homo sapiens
Jurkat [27] = assay: SAR Analysis of small molecule inhibitors of T-cell specific antigen receptor-induced NF-kB activation in a Jurkat cell line using a luminescence assay - Set 2. [Related pubchem assays (depositor defined):AID435003, AID435012, AID465]; format: functional, cell-based; conditions: Homo sapiens
Candida albicans [28] = assay: growth inhibition of resistant C. albicans, dose response, CaCi-8 strain, fluconazole, dry powder, set 4 (AID 488950); format: functional, organism-based
Candida albicans [29] = assay: growth inhibition of azole-resistant C. albicans, dose response, CaCi-8 strain, Alamar Blue, dry powder, set 2 (AID 488909); format: functional, organism-based
Candida albicans [30] = assay: C. albicans growth inhibition with fluconazole, dose response, antifungal resistance reversal project, CaCi-2 strain, Alamar Blue, dry powder, set 2 (AID 488930); format: functional, organism-based
Candida albicans [31] = assay: fluconazole resistance reversal in C. albicans, dose response, CaCi-2 strain, Alamar Blue, dry powder, set 4 (AID 488943); format: functional, organism-based

Q: With `COc1ccc(-c2cc3c(nn2)-c2ccccc2C3=O)cc1` as the molecule, how does the AC50 [1] read?
A: 4.22 µM (active)

Q: What about the AC50 [2] of the same molecule?
A: 15.8 µM (active)

Q: What about the AC50 (A-375) of the same molecule?
A: 20.2 µM (active)

Q: What about the AC50 [3] of the same molecule?
A: 5.11 µM (active)

Q: What about the AC50 [4] of the same molecule?
A: 29.2 µM (active)

Q: What about the EC50 [5] of the same molecule?
A: 0.384 µM (active)

Q: And the EC50 [6]?
A: > 60 µM (not active)

Q: And the IC50 [7]?
A: 6.98 µM (active)

Q: What about the AC50 [8] of the same molecule?
A: 4.41 µM (active)

Q: What about the EC50 [9] of the same molecule?
A: 0.375 µM (inconclusive)

Q: What about the EC50 [10] of the same molecule?
A: 6.87 µM (active)

Q: What about the AC50 [11] of the same molecule?
A: 23.4 µM (active)

Q: And the EC50 (Beta-galactosidase)?
A: > 40 µM (inactive)

Q: Which AC50 (Escherichia coli) does the source give for `CC(C)c1cc(C(=O)NCc2ccco2)no1` here?
A: 46.2 µM (active)

Q: With `CN(C)c1cccc2c(C=C(C#N)C#N)ccc(N(C)C)c12` as the molecule, how does the IC50 (MDCK [12]) read?
A: > 100 µM (active)

Q: What about the IC50 (Nonstructural protein 1) of the same molecule?
A: 22.6 µM (active)

Q: And the IC50 (MDCK [13])?
A: 15.9 µM (active)

Q: For `Nc1nc(NCCCN2CCOCC2)nc(Nc2cccc(F)c2)c1[N+](=O)[O-]`, which AC50 [14] is on record?
A: 0.208 µM (active)

Q: What about the AC50 [15] of the same molecule?
A: 0.698 µM (active)

Q: For `O=S(=O)(NCC1CCCO1)c1ccc(-c2ccc(S(=O)(=O)NCC3CCCO3)cc2)cc1` (stereo unspecified), which IC50 [16] is on record?
A: 2.02 µM (active)

Q: And the EC50 [17]?
A: > 20 µM (inactive)

Q: What about the IC50 (HEK293 [18]) of the same molecule?
A: > 20 µM (inactive)

Q: What about the IC50 (HEK293 [19]) of the same molecule?
A: 19.9 µM (active)

Q: What about the IC50 (HEK293 [20]) of the same molecule?
A: 9.07 µM (active)

Q: What about the IC50 [21] of the same molecule?
A: > 80 µM (inactive)

Q: And the AC50 (INS1)?
A: 3.25 µM (active)

Q: And the EC50 (HEK293 [22])?
A: 1.65 µM (active)

Q: What about the IC50 (Jurkat [23]) of the same molecule?
A: > 80 µM (inactive)

Q: What about the IC50 (HEK293 [24]) of the same molecule?
A: 5.37 µM (active)

Q: For `COc1ccc(C(=O)Nc2ccc(NC(=O)c3cc4ccccc4o3)cc2)cc1Cl`, which IC50 (HEK293 [25]) is on record?
A: > 80 µM (inactive)

Q: And the IC50 (HEK293 [26])?
A: > 80 µM (inactive)

Q: What about the IC50 (Jurkat [27]) of the same molecule?
A: > 79 µM (inactive)

Q: What does the source list for `O=C(c1ccc(Cl)cc1)C1CCN(c2ccnc3cc(Cl)ccc23)CC1`?
A: AC50 (Candida albicans [28]): 0.579 µM (active); AC50 (Candida albicans [29]): 3.81 µM (active); AC50 (Candida albicans [30]): 0.663 µM (active); AC50 (Candida albicans [31]): 0.342 µM (active)
